Data reported in US20230391809A1, “HYDROPHOBIC COMPOSITIONS INCLUDING A HYDROPHILIC ACTIVE INGREDIENT AND METHODS RELATING THERETO” (BioMimetix JV, LLC, priority 2022, published 2023).
Where two headings read alike, the source gives them in different places. Marks after values point to notes of the source that are not given here.

Description: The vial was placed in a first 3 mL low density polyethylene (LDPE) bag with a 1/6 desiccant and the bag was twist tie closed. The first bag was placed in a second 3 mL LDPE bag, twist tie closed, and placed in a high density polyethylene (HDPE) container.

CC[n+]1ccccc1-c1c2nc(c(-c3cccc[n+]3CC)c3ccc([n-]3)c(-c3cccc[n+]3CC)c3nc(c(-c4cccc[n+]4CC)c4ccc1[n-]4)C=C3)C=C2.[Cl-].[Cl-].[Cl-].[Cl-].[Cl-].[Mn+3] [BMX-010]
Appearance (25° C./60% RH, 3 Month): Brown Solid | Assay by UPLC (Wt % of an anhydrous basis, sum of Atropisomers) (25° C./60% RH, 3 Month): 100.3% | PSD D10 (25° C./60% RH, 3 Month): D10: 0.60 μm | PSD D50 (25° C./60% RH, 3 Month): D50: 1.1 μm | PSD D90 (25° C./60% RH, 3 Month): D90: 2.0 μm | Total Impurities by HPLC (Area %) (25° C./60% RH, 3 Month): 0.81% | Water Content by Karl Fischer (25° C./60% RH, 3 Month): 7.3% | Appearance (25° C./60% RH, 6 Month): Brown Solid | Assay by UPLC (Wt % of an anhydrous basis, sum of Atropisomers) (25° C./60% RH, 6 Month): 99.9% | PSD D10 (25° C./60% RH, 6 Month): D10: 0.62 μm* | PSD D50 (25° C./60% RH, 6 Month): D50: 1.2 μm* | PSD D90 (25° C./60% RH, 6 Month): D90: 2.0 μm* | Total Impurities by HPLC (Area %) (25° C./60% RH, 6 Month): 0.88% | Water Content by Karl Fischer (25° C./60% RH, 6 Month): 7.7% | XRPD (25° C./60% RH, 6 Month): Amorphous | Appearance (40° C./75% RH, 3 Month): Brown Solid | Assay by UPLC (Wt % of an anhydrous basis, sum of Atropisomers) (40° C./75% RH, 3 Month): 100.2% | PSD D10 (40° C./75% RH, 3 Month): D10: 0.60 μm | PSD D50 (40° C./75% RH, 3 Month): D50: 1.2 μm | PSD D90 (40° C./75% RH, 3 Month): D90: 2.1 μm | Total Impurities by HPLC (Area %) (40° C./75% RH, 3 Month): 1.3% | Water Content by Karl Fischer (40° C./75% RH, 3 Month): 7.5% | Appearance (40° C./75% RH, 6 Month): Brown Solid | Assay by UPLC (Wt % of an anhydrous basis, sum of Atropisomers) (40° C./75% RH, 6 Month): 97.9%** | PSD D10 (40° C./75% RH, 6 Month): D10: 0.61 μm* | PSD D50 (40° C./75% RH, 6 Month): D50: 1.2 μm* | PSD D90 (40° C./75% RH, 6 Month): D90: 2.1 μm* | Total Impurities by HPLC (Area %) (40° C./75% RH, 6 Month): 1.6%** | Water Content by Karl Fischer (40° C./75% RH, 6 Month): 8.5% | XRPD (40° C./75% RH, 6 Month): Amorphous | Appearance (T = 0): Brown Solid | Assay by UPLC (Wt % of an anhydrous basis, sum of Atropisomers) (T = 0): 97.5% | PSD D10 (T = 0): D10: 0.61 μm | PSD D50 (T = 0): D50: 1.2 μm | PSD D90 (T = 0): D90: 2.0 μm | Total Impurities by HPLC (Area %) (T = 0): 0.67% | Water Content by Karl Fischer (T = 0): 6.9% | XRPD (T = 0): Amorphous | Appearance (−20° C., 3 Month): Brown Solid | Assay by UPLC (Wt % of an anhydrous basis, sum of Atropisomers) (−20° C., 3 Month): 101.4% | PSD D10 (−20° C., 3 Month): D10: 0.59 μm | PSD D50 (−20° C., 3 Month): D50: 1.1 μm | PSD D90 (−20° C., 3 Month): D90: 2.0 μm | Total Impurities by HPLC (Area %) (−20° C., 3 Month): 0.63% | Water Content by Karl Fischer (−20° C., 3 Month): 7.0% | Appearance (−20° C., 6 Month): Brown Solid | Assay by UPLC (Wt % of an anhydrous basis, sum of Atropisomers) (−20° C., 6 Month): 100.7% | PSD D10 (−20° C., 6 Month): D10: 0.59 μm* | PSD D50 (−20° C., 6 Month): D50: 1.1 μm* | PSD D90 (−20° C., 6 Month): D90: 1.9 μm* | Total Impurities by HPLC (Area %) (−20° C., 6 Month): 0.63% | Water Content by Karl Fischer (−20° C., 6 Month): 7.4% | XRPD (−20° C., 6 Month): Amorphous
